{"source": "paper PMC7862507", "about": "“Adrenomedullin for steroid-resistant ulcerative colitis: a randomized, double-blind, placebo-controlled phase-2a clinical trial” (Journal of Gastroenterology, 2020)", "system": "patients with steroid-resistant UC", "assay": "Adverse events, safety assessment", "settings": "for Decrease of blood pressure (cardiovascular disorders) / Flushing (cardiovascular disorders) / Gastrointestinal disorders / Head disconfort (nervous system disorders) / Palpitation (cardiovascular disorders) / Rash / Headache (nervous system disorders) / Increase of transaminase / Muscle pain, back pain / Any adverse events: patients with event (%); for Increase of transaminase / Muscle pain, back pain: placebo 2 (29%); for Any adverse events: placebo 4 (57%)", "key": {"[1]": {"settings": "AM 5 ng/kg/min, n = 5, placebo 0"}, "[2]": {"settings": "AM 10 ng/kg/min, n = 7, placebo 0"}, "[3]": {"settings": "AM 15 ng/kg/min, n = 7, placebo 0"}}, "procedure": "Safety evaluations including the evaluation of adverse events (AEs) and serious adverse events (SAEs) were conducted throughout the study. Vital signs, blood and urine tests, and a 12-lead ECG were performed at specified times after administration, with monitoring of ECG being assessed from the beginning of every test drug administration until 2 h after the administration.\nAll data, except for the PK parameters, were collected using an electronic data collection system (Viedoc) and analyzed by Intellim (Tokyo, Japan), an independent CRO. […] The population included in the safety analysis were all patients who received at least 1 day of administration of the test drug. […] The significant level for each test was 5%. All analyses were performed using SAS version 9.3 (SAS Institute, Cary, NC, USA). […] All data are shown as mean ± standard deviation (SD).", "data": [{"smiles": "CC[C@H](C)[C@H](NC(=O)[C@H](CCC(N)=O)NC(=O)[C@H](Cc1c[nH]cn1)NC(=O)[C@H](C)NC(=O)[C@H](CC(C)C)NC(=O)[C@H](CCCCN)NC(=O)[C@H](CCC(N)=O)NC(=O)[C@@H](NC(=O)[C@@H](NC(=O)[C@@H]1CSSC[C@H](NC(=O)CNC(=O)[C@H](Cc2ccccc2)NC(=O)[C@H](CO)NC(=O)[C@H](CCCNC(=N)N)NC(=O)[C@H](CC(C)C)NC(=O)CNC(=O)[C@H](CCC(N)=O)NC(=O)[C@H](Cc2ccccc2)NC(=O)[C@H](CC(N)=O)NC(=O)[C@H](CC(N)=O)NC(=O)[C@H](CCSC)NC(=O)[C@H](CO)NC(=O)[C@H](CCC(N)=O)NC(=O)[C@H](CCCNC(=N)N)NC(=O)[C@@H](N)Cc2ccc(O)cc2)C(=O)N[C@@H](CCCNC(=N)N)C(=O)N[C@@H](Cc2ccccc2)C(=O)NCC(=O)N[C@@H]([C@@H](C)O)C(=O)N1)[C@@H](C)O)C(C)C)C(=O)N[C@@H](Cc1ccc(O)cc1)C(=O)N[C@@H](CCC(N)=O)C(=O)N[C@@H](Cc1ccccc1)C(=O)N[C@H](C(=O)N[C@@H](CC(=O)O)C(=O)N[C@@H](CCCCN)C(=O)N[C@@H](CC(=O)O)C(=O)N[C@@H](CCCCN)C(=O)N[C@@H](CC(=O)O)C(=O)N[C@@H](CC(N)=O)C(=O)N[C@H](C(=O)N[C@@H](C)C(=O)N1CCC[C@H]1C(=O)N[C@@H](CCCNC(=N)N)C(=O)N[C@@H](CO)C(=O)N[C@@H](CCCCN)C(=O)N[C@H](C(=O)N[C@@H](CO)C(=O)N1CCC[C@H]1C(=O)N[C@@H](CCC(N)=O)C(=O)NCC(=O)N[C@@H](Cc1ccc(O)cc1)C(N)=O)[C@@H](C)CC)C(C)C)[C@@H](C)O", "note": "[Adrenomedullin]", "values": [{"measurement": "Decrease of blood pressure (cardiovascular disorders)", "setting": "[1]", "value": 0}, {"measurement": "Flushing (cardiovascular disorders)", "setting": "[1]", "value": 0}, {"measurement": "Gastrointestinal disorders", "setting": "[1]", "value": "2 (40%)"}, {"measurement": "Head disconfort (nervous system disorders)", "setting": "[1]", "value": 0}, {"measurement": "Palpitation (cardiovascular disorders)", "setting": "[1]", "value": 0}, {"measurement": "Rash", "setting": "[1]", "value": 0}, {"measurement": "Headache (nervous system disorders)", "setting": "AM 5 ng/kg/min, n = 5, placebo 1 (14%)", "value": "3 (60%)"}, {"measurement": "Increase of transaminase", "setting": "AM 5 ng/kg/min, n = 5", "value": 0}, {"measurement": "Muscle pain, back pain", "setting": "AM 5 ng/kg/min, n = 5", "value": 0}, {"measurement": "Any adverse events", "setting": "AM 5 ng/kg/min, n = 5, n = 7", "value": "4 (80%)"}, {"measurement": "Decrease of blood pressure (cardiovascular disorders)", "setting": "[2]", "value": "1 (14%)"}, {"measurement": "Flushing (cardiovascular disorders)", "setting": "[2]", "value": 0}, {"measurement": "Gastrointestinal disorders", "setting": "[2]", "value": 0}, {"measurement": "Head disconfort (nervous system disorders)", "setting": "[2]", "value": "1 (14%)"}, {"measurement": "Palpitation (cardiovascular disorders)", "setting": "[2]", "value": 0}, {"measurement": "Rash", "setting": "[2]", "value": 0}, {"measurement": "Headache (nervous system disorders)", "setting": "AM 10 ng/kg/min, n = 7, placebo 1 (14%)", "value": "4 (57%)"}, {"measurement": "Increase of transaminase", "setting": "AM 10 ng/kg/min, n = 7", "value": 0}, {"measurement": "Muscle pain, back pain", "setting": "AM 10 ng/kg/min, n = 7", "value": 0}, {"measurement": "Any adverse events", "setting": "AM 10 ng/kg/min, n = 7", "value": "6 (86%)"}, {"measurement": "Decrease of blood pressure (cardiovascular disorders)", "setting": "[3]", "value": "1 (14%)"}, {"measurement": "Flushing (cardiovascular disorders)", "setting": "[3]", "value": "2 (29%)"}, {"measurement": "Gastrointestinal disorders", "setting": "[3]", "value": 0}, {"measurement": "Head disconfort (nervous system disorders)", "setting": "[3]", "value": "2 (29%)"}, {"measurement": "Palpitation (cardiovascular disorders)", "setting": "[3]", "value": "1 (14%)"}, {"measurement": "Rash", "setting": "[3]", "value": "1 (14%)"}, {"measurement": "Headache (nervous system disorders)", "setting": "AM 15 ng/kg/min, n = 7, placebo 1 (14%)", "value": "4 (57%)"}, {"measurement": "Increase of transaminase", "setting": "AM 15 ng/kg/min, n = 7", "value": "1 (14%)"}, {"measurement": "Muscle pain, back pain", "setting": "AM 15 ng/kg/min, n = 7", "value": 0}, {"measurement": "Any adverse events", "setting": "AM 15 ng/kg/min, n = 7", "value": "6 (86%)"}, {"measurement": "Severe adverse events", "setting": "patients with event, AM 5 ng/kg/min, n = 5, placebo 0", "value": 0}, {"measurement": "Serious adverse events", "setting": "patients with event, AM 5 ng/kg/min, n = 5, placebo 1 (14%)", "value": 0}]}]}
